Reference: ChEMBL document CHEMBL2331094 (Bioorg Med Chem Lett, 2013)

These compounds were tested against T1, Lysophosphatidic acid receptor 2 (Homo sapiens, UniProt Q9HBW0) (assay: Intrinsic activity at human LPA2 receptor transfected in HEK293 cells after 1 hr by TGFalpha shedding assay relative to LPA).
T1 sequence (Q9HBW0 whole entry): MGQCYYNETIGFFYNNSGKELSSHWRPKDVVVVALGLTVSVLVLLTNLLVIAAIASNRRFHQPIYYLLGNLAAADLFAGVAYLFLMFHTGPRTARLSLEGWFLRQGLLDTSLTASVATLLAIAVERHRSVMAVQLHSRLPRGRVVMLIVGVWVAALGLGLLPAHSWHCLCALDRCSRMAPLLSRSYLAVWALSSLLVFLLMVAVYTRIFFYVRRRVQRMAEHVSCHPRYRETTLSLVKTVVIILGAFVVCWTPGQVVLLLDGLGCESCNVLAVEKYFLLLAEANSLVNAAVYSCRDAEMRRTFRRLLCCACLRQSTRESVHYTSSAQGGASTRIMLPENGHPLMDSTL
Format: cell-based
`CCCCCCCCCCCCCCCC(=O)OC[C@@H](O)COP(=O)(O)O` gave an Intrinsic activity of 0.092.
For `CCCCCCCC/C=C\CCCCCCCC(=O)OC[C@@H](O)COP(=O)(O)O` [LYSOPHOSPHATIDIC ACID], the Intrinsic activity was 1.
`CCCCCCCCCCCCCCCCCCOC[C@@H](COP(O)(O)=S)OC` was tested, and the Intrinsic activity was 0.34.
`CCCCCCCCCCCCCCCCCC(=O)OCC(COP(=O)(O)S)OC` (racemic) showed an Intrinsic activity of 0.188.
In the case of `CCCCCCCCCCCCCCCCCOC(COC)COP(O)(O)=S` (racemic), the Intrinsic activity is reported as 0.3.
With `CCCCCCCCCCCCCCCCCC(=O)OC[C@@H](COP(O)(O)=S)OC` the Intrinsic activity was 0.25.

These compounds were tested against T2, Lysophosphatidic acid receptor 4 (Homo sapiens, UniProt Q99677) (assay: Intrinsic activity at human LPA4 receptor transfected in HEK293 cells after 1 hr by TGFalpha shedding assay in presence of Ki16425 relative to LPA).
T2 sequence (Q99677 whole entry): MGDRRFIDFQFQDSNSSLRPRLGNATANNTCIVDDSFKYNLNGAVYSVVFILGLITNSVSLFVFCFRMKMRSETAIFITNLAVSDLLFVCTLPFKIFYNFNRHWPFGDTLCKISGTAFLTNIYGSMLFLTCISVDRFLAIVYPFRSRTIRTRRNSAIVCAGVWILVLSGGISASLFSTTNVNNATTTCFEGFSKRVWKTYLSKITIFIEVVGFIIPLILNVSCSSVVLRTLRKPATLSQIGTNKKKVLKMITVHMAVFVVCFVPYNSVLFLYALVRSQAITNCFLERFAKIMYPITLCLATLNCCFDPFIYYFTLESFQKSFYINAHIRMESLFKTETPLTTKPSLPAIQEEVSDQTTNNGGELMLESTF
Format: cell-based
`CCCCCCCCCCCCCCCC(=O)OC[C@@H](O)COP(=O)(O)O` gave an Intrinsic activity of 0.14.
With `CCCCCCCC/C=C\CCCCCCCC(=O)OC[C@@H](O)COP(=O)(O)O` [LYSOPHOSPHATIDIC ACID] the Intrinsic activity was 1.
Work on `CCCCCCCCCCCCCCCCCCOC[C@@H](COP(O)(O)=S)OC` yielded an Intrinsic activity of 2.7.
`CCCCCCCCCCCCCCCCCC(=O)OCC(COP(=O)(O)S)OC` (racemic) showed an Intrinsic activity of 2.6.
`CCCCCCCCCCCCCCCCCOC(COC)COP(O)(O)=S` (racemic) gave an Intrinsic activity of 2.
Compound `CCCCCCCCCCCCCCCCCC(=O)OC[C@@H](COP(O)(O)=S)OC` has an Intrinsic activity of 3.1.

What follows are compounds tested against T3, Lysophosphatidic acid receptor 3 (Homo sapiens, UniProt Q9UBY5) (assay: Agonist activity at human LPA3 receptor transfected in HEK293 cells after 1 hr by TGFalpha shedding assay).
T3 sequence (Q9UBY5 whole entry): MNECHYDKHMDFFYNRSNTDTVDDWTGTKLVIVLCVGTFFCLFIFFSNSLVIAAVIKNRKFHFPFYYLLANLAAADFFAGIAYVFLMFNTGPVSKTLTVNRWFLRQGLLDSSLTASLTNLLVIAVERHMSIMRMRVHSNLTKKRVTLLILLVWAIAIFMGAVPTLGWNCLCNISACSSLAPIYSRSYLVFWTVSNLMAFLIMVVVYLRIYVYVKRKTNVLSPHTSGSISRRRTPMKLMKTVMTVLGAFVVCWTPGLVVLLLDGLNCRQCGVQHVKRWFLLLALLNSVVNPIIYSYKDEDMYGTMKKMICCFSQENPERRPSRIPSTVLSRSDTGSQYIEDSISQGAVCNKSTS
Format: cell-based
With `CCCCCCCCCCCCCCCC(=O)OC[C@@H](O)COP(=O)(O)O` the EC50 was 580 nM.
Work on `CCCCCCCCCCCCCCCCCCOC[C@@H](COP(O)(O)=S)OC` yielded an EC50 of 0.37 nM.
Compound `CCCCCCCCCCCCCCCCCC(=O)OCC(COP(=O)(O)S)OC` (racemic) has an EC50 of 0.28 nM.
With `CCCCCCCCCCCCCCCCCOC(COC)COP(O)(O)=S` (racemic) the EC50 was 0.39 nM.
Work on `CCCCCCCCCCCCCCCCCC(=O)OC[C@@H](COP(O)(O)=S)OC` yielded an EC50 of 0.27 nM.

These compounds were tested against T4, Lysophosphatidic acid receptor 6 (Homo sapiens, UniProt P43657) (assay: Agonist activity at human LPA6 receptor transfected in HEK293 cells after 1 hr by TGFalpha shedding assay in presence of Ki16425).
T4 sequence (P43657 whole entry): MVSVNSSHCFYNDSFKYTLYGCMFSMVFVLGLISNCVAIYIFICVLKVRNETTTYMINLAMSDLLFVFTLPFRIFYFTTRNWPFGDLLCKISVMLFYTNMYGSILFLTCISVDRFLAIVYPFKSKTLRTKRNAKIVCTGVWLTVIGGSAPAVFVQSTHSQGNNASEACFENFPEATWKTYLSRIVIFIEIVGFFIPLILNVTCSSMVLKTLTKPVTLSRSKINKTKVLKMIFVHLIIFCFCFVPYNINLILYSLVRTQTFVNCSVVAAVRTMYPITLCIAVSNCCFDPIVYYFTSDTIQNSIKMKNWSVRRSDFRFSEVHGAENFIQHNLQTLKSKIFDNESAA
Format: cell-based
For `CCCCCCCCCCCCCCCC(=O)OC[C@@H](O)COP(=O)(O)O`, the EC50 was 930 nM.
With `CCCCCCCCCCCCCCCCCCOC[C@@H](COP(O)(O)=S)OC` the EC50 was 90 nM.
`CCCCCCCCCCCCCCCCCC(=O)OCC(COP(=O)(O)S)OC` (racemic) showed an EC50 of 86 nM.
`CCCCCCCCCCCCCCCCCOC(COC)COP(O)(O)=S` (racemic) showed an EC50 of 78 nM.
For `CCCCCCCCCCCCCCCCCC(=O)OC[C@@H](COP(O)(O)=S)OC`, the EC50 was 79 nM.

Each compound was assayed against T2, Lysophosphatidic acid receptor 4 (assay: Agonist activity at human LPA4 receptor transfected in HEK293 cells after 1 hr by TGFalpha shedding assay in presence of Ki16425).
Format: cell-based
For `CCCCCCCCCCCCCCCC(=O)OC[C@@H](O)COP(=O)(O)O`, the EC50 was 84 nM.
In the case of `CCCCCCCCCCCCCCCCCCOC[C@@H](COP(O)(O)=S)OC`, the EC50 is reported as 3.5 nM.
Work on `CCCCCCCCCCCCCCCCCC(=O)OCC(COP(=O)(O)S)OC` (racemic) yielded an EC50 of 3.3 nM.
Work on `CCCCCCCCCCCCCCCCCOC(COC)COP(O)(O)=S` (racemic) yielded an EC50 of 4.5 nM.
`CCCCCCCCCCCCCCCCCC(=O)OC[C@@H](COP(O)(O)=S)OC` was tested, and the EC50 was 2.7 nM.

Each compound was assayed against T5, Lysophosphatidic acid receptor 6 (Homo sapiens) (UniProt P43657) (assay: Intrinsic activity at human LPA6 receptor transfected in HEK293 cells after 1 hr by TGFalpha shedding assay in presence of Ki16425 relative to LPA).
T5 sequence (whole entry): T4 sequence (P43657 whole entry)
Format: cell-based
With `CCCCCCCCCCCCCCCC(=O)OC[C@@H](O)COP(=O)(O)O` the Intrinsic activity was 0.25.
In the case of `CCCCCCCC/C=C\CCCCCCCC(=O)OC[C@@H](O)COP(=O)(O)O` [LYSOPHOSPHATIDIC ACID], the Intrinsic activity is reported as 1.
With `CCCCCCCCCCCCCCCCCCOC[C@@H](COP(O)(O)=S)OC` the Intrinsic activity was 11.
With `CCCCCCCCCCCCCCCCCC(=O)OCC(COP(=O)(O)S)OC` (racemic) the Intrinsic activity was 13.3.
In the case of `CCCCCCCCCCCCCCCCCOC(COC)COP(O)(O)=S` (racemic), the Intrinsic activity is reported as 15.1.
`CCCCCCCCCCCCCCCCCC(=O)OC[C@@H](COP(O)(O)=S)OC` showed an Intrinsic activity of 13.1.

Each compound was assayed against T6, Lysophosphatidic acid receptor 3 (Homo sapiens) (UniProt Q9UBY5) (assay: Intrinsic activity at human LPA3 receptor transfected in HEK293 cells after 1 hr by TGFalpha shedding assay relative to LPA).
T6 sequence (whole entry): T3 sequence (Q9UBY5 whole entry)
Format: cell-based
`CCCCCCCCCCCCCCCC(=O)OC[C@@H](O)COP(=O)(O)O` gave an Intrinsic activity of 0.102.
Compound `CCCCCCCC/C=C\CCCCCCCC(=O)OC[C@@H](O)COP(=O)(O)O` [LYSOPHOSPHATIDIC ACID] has an Intrinsic activity of 1.
`CCCCCCCCCCCCCCCCCCOC[C@@H](COP(O)(O)=S)OC` gave an Intrinsic activity of 390.
Work on `CCCCCCCCCCCCCCCCCC(=O)OCC(COP(=O)(O)S)OC` (racemic) yielded an Intrinsic activity of 410.
Compound `CCCCCCCCCCCCCCCCCOC(COC)COP(O)(O)=S` (racemic) has an Intrinsic activity of 340.
`CCCCCCCCCCCCCCCCCC(=O)OC[C@@H](COP(O)(O)=S)OC` gave an Intrinsic activity of 500.

These compounds were tested against T7, Lysophosphatidic acid receptor 5 (Homo sapiens, UniProt Q9H1C0) (assay: Agonist activity at human LPA5 receptor transfected in HEK293 cells after 1 hr by TGFalpha shedding assay in presence of Ki16425).
T7 sequence (Q9H1C0 whole entry): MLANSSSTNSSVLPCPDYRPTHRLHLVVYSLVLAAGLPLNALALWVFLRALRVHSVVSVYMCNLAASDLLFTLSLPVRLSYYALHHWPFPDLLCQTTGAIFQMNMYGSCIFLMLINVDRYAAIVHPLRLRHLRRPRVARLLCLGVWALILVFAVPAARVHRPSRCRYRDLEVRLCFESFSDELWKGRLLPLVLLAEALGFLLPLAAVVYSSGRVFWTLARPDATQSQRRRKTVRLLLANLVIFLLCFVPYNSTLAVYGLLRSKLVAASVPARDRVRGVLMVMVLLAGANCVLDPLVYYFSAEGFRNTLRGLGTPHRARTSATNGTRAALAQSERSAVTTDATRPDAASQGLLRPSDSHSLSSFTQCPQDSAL
Format: cell-based
`CCCCCCCCCCCCCCCC(=O)OC[C@@H](O)COP(=O)(O)O` was tested, and the EC50 was 68 nM.
`CCCCCCCCCCCCCCCCCCOC[C@@H](COP(O)(O)=S)OC` gave an EC50 of 3.4 nM.
With `CCCCCCCCCCCCCCCCCC(=O)OCC(COP(=O)(O)S)OC` (racemic) the EC50 was 6.3 nM.
In the case of `CCCCCCCCCCCCCCCCCOC(COC)COP(O)(O)=S` (racemic), the EC50 is reported as 3 nM.
`CCCCCCCCCCCCCCCCCC(=O)OC[C@@H](COP(O)(O)=S)OC` gave an EC50 of 5.1 nM.

The compounds below were run against T1, Lysophosphatidic acid receptor 2 (assay: Agonist activity at human LPA2 receptor transfected in HEK293 cells after 1 hr by TGFalpha shedding assay).
Format: cell-based
For `CCCCCCCCCCCCCCCC(=O)OC[C@@H](O)COP(=O)(O)O`, the EC50 was 290 nM.
In the case of `CCCCCCCCCCCCCCCCCCOC[C@@H](COP(O)(O)=S)OC`, the EC50 is reported as 110 nM.
`CCCCCCCCCCCCCCCCCC(=O)OCC(COP(=O)(O)S)OC` (racemic) gave an EC50 of 161 nM.
Work on `CCCCCCCCCCCCCCCCCOC(COC)COP(O)(O)=S` (racemic) yielded an EC50 of 117 nM.
With `CCCCCCCCCCCCCCCCCC(=O)OC[C@@H](COP(O)(O)=S)OC` the EC50 was 112 nM.

The compounds below were run against T7, Lysophosphatidic acid receptor 5 (assay: Intrinsic activity at human LPA5 receptor transfected in HEK293 cells after 1 hr by TGFalpha shedding assay in presence of Ki16425 relative to LPA).
Format: cell-based
`CCCCCCCCCCCCCCCC(=O)OC[C@@H](O)COP(=O)(O)O` was tested, and the Intrinsic activity was 1.04.
`CCCCCCCC/C=C\CCCCCCCC(=O)OC[C@@H](O)COP(=O)(O)O` [LYSOPHOSPHATIDIC ACID] was tested, and the Intrinsic activity was 1.
`CCCCCCCCCCCCCCCCCCOC[C@@H](COP(O)(O)=S)OC` showed an Intrinsic activity of 23.
`CCCCCCCCCCCCCCCCCC(=O)OCC(COP(=O)(O)S)OC` (racemic) gave an Intrinsic activity of 11.1.
`CCCCCCCCCCCCCCCCCOC(COC)COP(O)(O)=S` (racemic) gave an Intrinsic activity of 26.
With `CCCCCCCCCCCCCCCCCC(=O)OC[C@@H](COP(O)(O)=S)OC` the Intrinsic activity was 14.8.

The compounds below were run against T8, Lysophosphatidic acid receptor 1 (Homo sapiens, UniProt Q92633) (assay: Intrinsic activity at human LPA1 receptor transfected in HEK293 cells after 1 hr by TGFalpha shedding assay relative to LPA).
T8 sequence (Q92633 whole entry): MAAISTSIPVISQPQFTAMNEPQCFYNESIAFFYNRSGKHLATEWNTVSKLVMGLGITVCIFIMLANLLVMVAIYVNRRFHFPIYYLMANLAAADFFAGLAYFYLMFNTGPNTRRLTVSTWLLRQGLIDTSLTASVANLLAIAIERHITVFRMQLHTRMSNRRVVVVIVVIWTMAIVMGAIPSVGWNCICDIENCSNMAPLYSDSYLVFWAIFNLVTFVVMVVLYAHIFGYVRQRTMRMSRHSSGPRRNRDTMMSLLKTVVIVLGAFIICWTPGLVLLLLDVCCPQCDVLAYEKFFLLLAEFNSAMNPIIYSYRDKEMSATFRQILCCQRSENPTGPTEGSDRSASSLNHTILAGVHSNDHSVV
Format: cell-based
With `CCCCCCCCCCCCCCCC(=O)OC[C@@H](O)COP(=O)(O)O` the Intrinsic activity was 0.24.
`CCCCCCCC/C=C\CCCCCCCC(=O)OC[C@@H](O)COP(=O)(O)O` [LYSOPHOSPHATIDIC ACID] showed an Intrinsic activity of 1.
For `CCCCCCCCCCCCCCCCCCOC[C@@H](COP(O)(O)=S)OC`, the Intrinsic activity was 1.2.
Compound `CCCCCCCCCCCCCCCCCC(=O)OCC(COP(=O)(O)S)OC` (racemic) has an Intrinsic activity of 0.79.
`CCCCCCCCCCCCCCCCCOC(COC)COP(O)(O)=S` (racemic) showed an Intrinsic activity of 1.29.
Compound `CCCCCCCCCCCCCCCCCC(=O)OC[C@@H](COP(O)(O)=S)OC` has an Intrinsic activity of 0.94.

These compounds were tested against T8, Lysophosphatidic acid receptor 1 (assay: Agonist activity at human LPA1 receptor transfected in HEK293 cells after 1 hr by TGFalpha shedding assay).
Format: cell-based
Compound `CCCCCCCCCCCCCCCC(=O)OC[C@@H](O)COP(=O)(O)O` has an EC50 of 71 nM.
In the case of `CCCCCCCC/C=C\CCCCCCCC(=O)OC[C@@H](O)COP(=O)(O)O` [LYSOPHOSPHATIDIC ACID], the EC50 is reported as 18 nM.
Compound `CCCCCCCCCCCCCCCCCCOC[C@@H](COP(O)(O)=S)OC` has an EC50 of 10.1 nM.
`CCCCCCCCCCCCCCCCCC(=O)OCC(COP(=O)(O)S)OC` (racemic) was tested, and the EC50 was 16.5 nM.
`CCCCCCCCCCCCCCCCCOC(COC)COP(O)(O)=S` (racemic) showed an EC50 of 11.1 nM.
`CCCCCCCCCCCCCCCCCC(=O)OC[C@@H](COP(O)(O)=S)OC` was tested, and the EC50 was 14.7 nM.
